# Patent US20260144805A1, “CANNABIDIOL COMPOSITIONS FOR USE IN THE TREATMENT OF NEURODEGENERATIVE AND NEUROLOGICAL DISORDERS” (JAZZ PHARMACEUTICALS RESEARCH UK LIMITED, priority 2022, published 2026)
# System: rat VPA model
# Test: Direct social interaction and social play P30 in rat VPA model (Example 5; DS = DS-E)
# Format: in vivo
# Method: Time-mated female Wistar rats were administered a single dose of valproic acid (VPA, 600 mg/kg, i.p.) on gestational day 12.5. Male offspring were delivered and confirmation of the VPA induced developmental deficit was rapidly achieved by examination of characteristic “tail kinks” in the juvenile animals. The timeline of experiments is outlined in FIG. 8 and animals were randomly allocated to treatment groups (Table O).
# Control animals were administered sterile saline (0.9% w/v, i.p.) in utero and the vehicle control (ethanol: Kolliphor HS15: saline (1:1:18, v/v/v), i.p.
# At postnatal day 30 and following 8 days treatment with the test compounds, animals were evaluated for juvenile play behavior. […] Animals were first allowed to individually explore the arena for 10-minute acclimatization trial (P29) and 24 hours later evaluated for social play (P30). On day of evaluation animals were scored for play activity measured by pinning (latency to, total duration and frequency), mounting (latency to, total duration and frequency) and latency, frequency and duration of social play behavior (following or approaching test partner, sniffing or social grooming). […]
# All data was assessed for outliers (ROUT; Prism V9.02) and then normality using D'Agostino and Pearson normality test for n=8, or Shapiro-Wilks test for n<8 or unequal groups. […]
smiles,measurement,setting,value
Cc1nc2n(c(=O)c1CCN1CCC(c3noc4cc(F)ccc34)CC1)CCCC2 [Risperidone],Social duration and frequency behaviours,"juvenile P30, risperidone 0.125 mg/kg",no effect
same,any measure of play or social interaction,"juvenile animals, Risperidone 0.125 mg/kg",without effect
